From patent publication US20170189547A1, “Biodegradable Drug Delivery Composition” (Durect Corporation, priority 2010, published 2017)

Biological target: T1, hGH (Homo sapiens, UniProt P01241)
T1 construct: purchased Hospira, Adelaide
Assay: Complexation capability of hGH with anionic and cationic agents (non-complexed hGH in supernatant by RPLC)
Assay type: physicochemical
Conditions: for Observation: hGH with complexing agent; for Supernatant Analysis (% of hGH): non-complexed hGH by RPLC
Experimental: Additional complexation agents were tested in vitro for their ability to precipitate rhGH.
Human growth hormone (purchased from Hospira, Adelaide) was complexed with poly lysine, poly arginine, poly adenylic acid (poly-A), or poly thymine (poly-T) in appropriate ratios (as specified in Table 28) to form suspensions. Supernatant was separated from precipitate (ppt) by centrifugation of the complexed material suspensions. The supernatant solution was analyzed for non-complexed hGH by reverse phase liquid chromatography (RPLC).

T1 sequence (P01241 27-217): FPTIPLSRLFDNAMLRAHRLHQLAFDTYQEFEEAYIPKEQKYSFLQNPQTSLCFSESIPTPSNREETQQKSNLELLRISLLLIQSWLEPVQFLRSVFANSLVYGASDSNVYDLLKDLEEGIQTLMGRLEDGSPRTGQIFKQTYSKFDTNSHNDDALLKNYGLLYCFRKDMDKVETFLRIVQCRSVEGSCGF

Row | Observation (concentration ratio 1:2) | Supernatant Analysis (% of hGH) (concentration ratio 1:2) | Substance | Observation (concentration ratio 1:10) | Supernatant Analysis (% of hGH) (concentration ratio 1:10)
1 | No ppt | >90 % of hGH | Hyaluronic Acid |  | 
2 |  |  | Poly-Lysine | Cloudy ppt | 9.5 % of hGH
